Like-named read-outs stand apart in the source and are kept apart here.
Experiments:
HoblOBP3 = HoblOBP3 (Holotrichia oblita, UniProt G9BWQ7); assay: biochemical; type: binding
Experimental: (§1) N-phenyl-1-naphthylamine (1-NPN) was selected as a probe to measure the affinity of the 1-NPN fluorescent ligand to proteins. A 1-cm light path quartz cuvette was used, and the fluorescence spectra were recorded on a Lengguang 970 CRT spectrofluorimeter (Shanghai Jingmi, China) at room temperature in a right angle configuration. The parameter selection was such that the slit widths for both excitation and emission were 10 nm. 1-NPN was excited at 337 nm and the emission spectra were recorded between 350 and 550 nm. Spectra were recorded using high-speed scanning.
(§2) The 2 µM protein solution was dissolved in 50 mM Tris-HCl buffer with pH 7.4, and the ligands were dissolved in chromatographically pure methanol as a 1 mM stock solution. 1-NPN was dissolved in chromatographically pure methanol as a 1 mM stock solution.
(§3) To determine the dissociation constants, the intensity values corresponding to the maximum fluorescence emission were plotted against free ligand concentrations. Assuming that the protein was 100% active and that the stoichiometric ratio between the protein and ligand was 1:1 at saturation, the bound ligand was determined from the fluorescence intensity values. The curves were then linearized using Scatchard plots. The K1-NPN values were estimated using GraphPad Prism 5 Software by nonlinear regression for a unique binding site. The dissociation constants of the competitors (Ki) were calculated from the corresponding IC50 values using the following equation: Ki = [IC50]/1+[1-NPN]/K1-NPN. […] [1-NPN] represented the free concentration of 1-NPN, and K1-NPN represented the dissociation constant of the complex protein/1-NPN [76].

HoblOBP4 = HoblOBP4 (Holotrichia oblita, UniProt G9BWQ8); assay: biochemical; type: binding
Experimental: as §1, §2, §3

[1] = HoblOBP3, dash = IC50 exceeded 50 µM, read-out: IC50 (dash)
[2] = HoblOBP3, dash = ligand whose IC50 exceeded 50 µM, Ki not given, read-out: Ki (dash)
[3] = pH 7.4, HoblOBP3, at the ligand concentration 24 µM, protein and 1-NPN both 2 µM, read-out: Int (fluorescence intensity as percent of the initial fluorescence)
[4] = HoblOBP4, calculated from IC50 and K1-NPN, read-out: Ki
[5] = HoblOBP4, protein and 1-NPN both 2 µM, ligand titrated 2–50 µM, read-out: IC50 (concentration of ligand halving the initial fluorescence intensity)
[6] = pH 7.4, HoblOBP4, at the ligand concentration 24 µM, protein and 1-NPN both 2 µM, read-out: Int (fluorescence intensity as percent of the initial fluorescence)
[7] = pH 7.4, read-out: Int (fluorescence intensity as percent of the initial fluorescence)
[8] = HoblOBP4, dash = IC50 exceeded 50 µM, read-out: IC50 (dash)
[9] = HoblOBP4, dash = ligand whose IC50 exceeded 50 µM, Ki not given, read-out: Ki (dash)

Chain of HoblOBP3 (G9BWQ7 entry or part of it): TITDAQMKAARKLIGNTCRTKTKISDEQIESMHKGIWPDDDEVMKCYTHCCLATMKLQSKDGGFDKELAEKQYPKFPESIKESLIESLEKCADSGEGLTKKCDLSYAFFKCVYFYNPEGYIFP
Chain of HoblOBP4 (G9BWQ8 entry or part of it): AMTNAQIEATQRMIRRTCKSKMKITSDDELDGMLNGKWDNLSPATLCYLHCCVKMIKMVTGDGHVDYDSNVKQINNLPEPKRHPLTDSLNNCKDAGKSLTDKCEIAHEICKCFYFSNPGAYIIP

SMILES	IC50 (HoblOBP3; [1]) [µM]	Ki (HoblOBP3; [2]) [µM]	activity at 24 µM (HoblOBP3; [3]) [%]	Ki (HoblOBP4; [4]) [µM]	IC50 (HoblOBP4; [5]) [µM]	activity at 24 µM (HoblOBP4; [6]) [%]	IC50 (HoblOBP3) [µM]	Ki (HoblOBP3) [µM]	activity at 24 µM (HoblOBP3; [7]) [%]	IC50 (HoblOBP4) [µM]	Ki (HoblOBP4) [µM]	activity at 24 µM (HoblOBP4; [7]) [%]	IC50 (HoblOBP4; [8]) [µM]	Ki (HoblOBP4; [9]) [µM]	Ki (HoblOBP3; HoblOBP3, calculated from IC50 and K1-NPN, read-out: Ki) [µM]	IC50 (HoblOBP3; HoblOBP3, protein and 1-NPN both 2 µM, ligand titrated 2–50 µM, read-out: IC50 (concentration of ligand halving the initial fluorescence intensity)) [µM]
CCCOC(=O)c1ccccc1 [Propyl benzoate]	> 50	> 50	81	14.7	20	48										
CC/C=C\CCOC(C)=O [(Z)-3-Hexenyl acetate]	> 50	> 50	78	29.4	40	56										
CC(=O)CCC=C(C)C [6-Methyl-5-hepten-2-one]							> 50	> 50	78	32	23.5	52				
CCCCCCO [1-Hexanol]	> 50	> 50	91	8.8	12	45										
CCCCCCCCC [Nonane]	> 50	> 50											> 50	> 50		
CCC/C=C\CO [cis-2-Hexen-1-ol]			70			42	> 50	> 50		14	10.3					
CCCCCCCC [Octane]	> 50	> 50		18.4	25				70			51				
CCCCCCCO [1-Heptanol]	> 50	> 50	70	15.4	21	46										
C=C(C)C1CC=C(C)CC1 (stereo not shown) [Limonene]			56			52	> 50	> 50		> 50	> 50					
CCCCCCCCCC=O [1-Decanal]	> 50	> 50	86			68							> 50	> 50		
CCOC(=O)CN [Glycine ethyl ester]	> 50	> 50	76		24	50										
CCCCC=O [1-Pentanal]			65	11.8	16	44									26.8	41
OCCc1ccccc1 [Phenethyl alcohol]	> 50	> 50	66	20.6	28	52										
CCCCCCC [Heptane]			63			43	> 50	> 50		16	11.8					
CC1=CCC(O)(C(C)C)CC1 (stereo not shown) [Terpinen-4-ol]							> 50	> 50	75	21	15.4	48				
O=CCc1ccccc1 [Benzeneacetaldehyde]	> 50	> 50											> 50	> 50		
CCCCCCOC(=O)c1ccccc1 [Hexyl benzoate]	> 50	> 50	53	2.9	4	36										

From publication PMC3871601, “Potential Cooperations between Odorant-Binding Proteins of the Scarab Beetle Holotrichia oblita Faldermann (Coleoptera: Scarabaeidae)” (PLoS ONE, 2013)
